From patent US11325938B2, “CD73 inhibitors” (ORIC Pharmaceuticals, Inc., priority 2018, dated 2022) come the findings set out here.

What is called IC50 is the concentration at which inhibition is half-maximal. Read a low IC50 as inhibition by little substance.

This experiment concerns the target CD73 (Homo sapiens (Human), UniProt P21589). The experiment in a line: Biochemical assay: inhibition of CD73 activity (AMP hydrolysis, Malachite Green readout). Conditions: CD73 0.3208 nM, AMP 15 μM, 25 mM Tris-HCl pH 7.4, RT, absorbance 620 nm. A digest of the protocol: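 Phosphate from AMP hydrolysis (15 μM AMP, 10 min, RT) was detected by Malachite Green absorbance to give IC50s. Enzyme at 320 pM was first exposed 15 min to compounds, dosed from 100 μM in ½-log steps, in Tris pH 7.4 buffer with MgCl2, Brij-35 and BSA.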

Chain of CD73 (P21589 27-574): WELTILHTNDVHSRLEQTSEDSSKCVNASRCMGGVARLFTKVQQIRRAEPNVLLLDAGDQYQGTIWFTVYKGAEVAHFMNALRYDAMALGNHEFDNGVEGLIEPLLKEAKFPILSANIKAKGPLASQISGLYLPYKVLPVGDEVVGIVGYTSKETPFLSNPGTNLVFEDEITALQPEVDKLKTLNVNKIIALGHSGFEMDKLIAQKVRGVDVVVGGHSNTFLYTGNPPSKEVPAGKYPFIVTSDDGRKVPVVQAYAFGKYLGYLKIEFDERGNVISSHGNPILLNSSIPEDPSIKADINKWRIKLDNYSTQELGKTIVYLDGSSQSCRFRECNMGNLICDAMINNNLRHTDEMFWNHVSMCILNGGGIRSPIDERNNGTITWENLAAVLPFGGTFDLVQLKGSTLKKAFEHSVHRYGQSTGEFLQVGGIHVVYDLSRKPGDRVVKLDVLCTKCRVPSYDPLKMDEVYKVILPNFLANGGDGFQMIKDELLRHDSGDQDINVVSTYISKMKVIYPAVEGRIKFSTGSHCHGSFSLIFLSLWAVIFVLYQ

On to `CC(C)(O)COc1nc(NC2CCCC2)c2cnn([C@@H]3O[C@H](COC(C)(CO)P(=O)(O)O)[C@@H](O)[C@H]3O)c2n1` (stereo partly drawn) [Example 146, (2-(((2R,3S,4R,5R)-5-(4-(cyclopentylamino)-6-(2-hydroxy-2-methylpropoxy)-1H-pyrazolo[3,4-d]pyrimidin-1-yl)-3,4-dihydroxytetrahydrofuran-2-yl)methoxy)-1-hydroxypropan-2-yl)phosphonic acid], for which the IC50 was at most 100 nM.
For `O=P(O)(O)C(CO)(Cc1ccccn1)OC[C@H]1O[C@@H](n2ncc3c(NC4CCCC4)nc(Cl)nc32)[C@H](O)[C@@H]1O` (stereo partly drawn) [Example 93, (2-(((2R,3S,4R,5R)-5-(6-chloro-4-(cyclopentylamino)-1H-pyrazolo[3,4-d]pyrimidin-1-yl)-3,4-dihydroxytetrahydrofuran-2-yl)methoxy)-1-hydroxy-3-(pyridin-2-yl)propan-2-yl)phosphonic acid] the value was at most 100 nM; for `C[C@@](CO)(OC[C@H]1O[C@@H](n2ncc3c(NC4CCCC4)nc(CO)nc32)[C@H](O)[C@@H]1O)P(=O)(O)O` [Example 128, ((R)-2-(((2R,3S,4R,5R)-5-(4-(cyclopentylamino)-6-(hydroxymethyl)-1H-pyrazolo[3,4-d]pyrimidin-1-yl)-3,4-dihydroxytetrahydrofuran-2-yl)methoxy)-1-hydroxypropan-2-yl)phosphonic acid], at most 100 nM; for `O=P(O)(O)C(CO)(Cc1nn[nH]n1)OC[C@H]1O[C@@H](n2ncc3c(NCC4CC4)nc(Cl)nc32)[C@H](O)[C@@H]1O` (mixture of isomers) [Example 184, rac-(2-(((2R,3S,4R,5R)-5-(6-chloro-4-((cyclopropylmethyl)amino)-1H-pyrazolo[3,4-d]pyrimidin-1-yl)-3,4-dihydroxytetrahydrofuran-2-yl)methoxy)-1-hydroxy-3-(2H-tetrazol-5-yl)propan-2-yl)phosphonic acid], at most 100 nM.
For `O=P(O)(O)[C@](CO)(COCC1CC1)OC[C@H]1O[C@@H](n2ncc3c(NC4CCCC4)nc(Cl)nc32)[C@H](O)[C@@H]1O` (racemic) [Example 170, rac-((R)-2-(((2R,3S,4R,5R)-5-(6-chloro-4-(cyclopentylamino)-1H-pyrazolo[3,4-d]pyrimidin-1-yl)-3,4-dihydroxytetrahydrofuran-2-yl)methoxy)-1-(cyclopropylmethoxy)-3-hydroxypropan-2-yl)phosphonic acid] the value was at most 100 nM; for `COC[C@@](Cc1nn[nH]n1)(OC[C@H]1O[C@@H](n2ncc3c(NC4CCCC4)nc(Cl)nc32)[C@H](O)[C@@H]1O)P(=O)(O)O` (racemic) [Example 212, rac-((R)-2-(((2S,3R,4S,5S)-5-(6-chloro-4-(cyclopentylamino)-1H-pyrazolo[3,4-d]pyrimidin-1-yl)-3,4-dihydroxytetrahydrofuran-2-yl)methoxy)-1-methoxy-3-(2H-tetrazol-5-yl)propan-2-yl)phosphonic acid], at most 100 nM; for `O=P(O)(O)CS(=O)(=O)C[C@H]1O[C@@H](n2nnc3c(NCc4ccccc4Cl)cc(Cl)nc32)[C@H](O)[C@@H]1O` [Example 27, (((((2S,3S,4R,5R)-5-(5-chloro-7-((2-chlorobenzyl)amino)-3H-[1,2,3]triazolo[4,5-b]pyridin-3-yl)-3,4-dihydroxytetrahydrofuran-2-yl)methyl)sulfonyl)methyl)phosphonic acid], at most 100 nM.
For `O=P(O)(O)C(OC[C@H]1O[C@@H](n2ncc3c(NC4CCCC4)nc(Cl)nc32)[C@H](O)[C@@H]1O)c1nnn[nH]1` (stereo partly drawn) [Example 35, ((((2R,3S,4R,5R)-5-(6-chloro-4-(cyclopentylamino)-1H-pyrazolo[3,4-d]pyrimidin-1-yl)-3,4-dihydroxytetrahydrofuran-2-yl)methoxy)(1H-tetrazol-5-yl)methyl)phosphonic acid] the value was at most 100 nM; for `O=P(O)(O)CP(=O)(O)OC[C@H]1O[C@@H](n2nnc3c(NC4CCCC4)cc(Cl)nc32)[C@H](O)[C@@H]1O` [Example 53, (((((2R,3S,4R,5R)-5-(5-chloro-7-(cyclopentylamino)-3H-[1,2,3]triazolo[4,5-b]pyridin-3-yl)-3,4-dihydroxytetrahydrofuran-2-yl)methoxy)(hydroxy)phosphoryl)methyl)phosphonic acid], at most 100 nM.
The compound `O=P(O)(O)COC[C@H]1O[C@@H](n2nnc3c(NCC4CC4)cc(Cl)nc32)[C@H](O)[C@@H]1O` [Example 21, ((((2R,3S,4R,5R)-5-(5-chloro-7-((cyclopropylmethyl)amino)-3H-[1,2,3]triazolo[4,5-b]pyridin-3-yl)-3,4-dihydroxytetrahydrofuran-2-yl)methoxy)methyl)phosphonic acid] returned an IC50 of at most 100 nM.
In the case of `O=P(O)(O)C(CO)(CO)OC[C@H]1O[C@@H](n2ncc3c(NCc4ccc(Cl)cc4)nc(Cl)nc32)[C@H](O)[C@@H]1O` (racemic) [Example 201, rac-(2-(((2R,3S,4R,5R)-5-(6-chloro-4-((4-chlorobenzyl)amino)-1H-pyrazolo[3,4-d]pyrimidin-1-yl)-3,4-dihydroxytetrahydrofuran-2-yl)methoxy)-1,3-dihydroxypropan-2-yl)phosphonic acid] it was at most 100 nM.
In the case of `CC(CO)(OC[C@H]1O[C@@H](n2ncc3c(NC4CCCC4)nc(CCCO)nc32)[C@H](O)[C@@H]1O)P(=O)(O)O` (stereo partly drawn) [Example 88, 2-(((2R,3S,4R,5R)-5-(4-(Cyclopentylamino)-6-(3-hydroxypropyl)-1H-pyrazolo[3,4-d]pyrimidin-1-yl)-3,4-dihydroxytetrahydrofuran-2-yl)methoxy)-1-hydroxypropan-2-ylphosphonic acid] it was at most 100 nM.
For `COCC(CC(=O)O)(OC[C@H]1O[C@@H](n2ncc3c(NC4CCCC4)nc(Cl)nc32)[C@H](O)[C@@H]1O)P(=O)(O)O` (mixture of isomers) [Example 210, rac-3-(((2R,3S,4R,5R)-5-(6-chloro-4-(cyclopentyalmino)-1H-pyrazolo[3,4-d]pyrimidin-1-yl)-3,4-dihydroxytetrahydrofuran-2-yl)methoxy)-4-methoxy-3-phosphonobutanoic acid] the value was at most 100 nM; for `CC(CO)(OC[C@H]1O[C@@H](n2ncc3c(NC4CCCC4)cc(Cl)nc32)[C@H](O)[C@@H]1O)P(=O)(O)O` (stereo partly drawn) [Example 152, (2-(((2R,3S,4R,5R)-5-(6-chloro-4-(cyclopentylamino)-1H-pyrazolo[3,4-b]pyridin-1-yl)-3,4-dihydroxytetrahydrofuran-2-yl)methoxy)-1-hydroxypropan-2-yl)phosphonic acid], at most 100 nM; for `COC[C@@H](OC[C@H]1O[C@@H](n2nnc3c(NC4CCCC4)cc(Cl)nc32)[C@H](O)[C@@H]1O)P(=O)(O)O` [Example 161, ((S)-1-(((2R,3S,4R,5R)-5-(5-chloro-7-(cyclopentylamino)-3H-[1,2,3]triazolo[4,5-b]pyridin-3-yl)-3,4-dihydroxytetrahydrofuran-2-yl)methoxy)-2-methoxyethyl)phosphonic acid], at most 100 nM.
On to `C[C@](CS(C)(=O)=O)(OC[C@H]1O[C@@H](n2ncc3c(NC4CCCC4)nc(Cl)nc32)[C@H](O)[C@@H]1O)P(=O)(O)O` [Example 73, ((S)-2-(((2R,3S,4R,5R)-5-(6-chloro-4-(cyclopentylamino)-1H-pyrazolo[3,4-d]pyrimidin-1-yl)-3,4-dihydroxytetrahydrofuran-2-yl)methoxy)-1-(methyslulfonyl)propan-2-yl)phosphonic acid], for which the IC50 is at most 100 nM.
For `NC(=O)OC[C@](CO)(OC[C@H]1O[C@@H](n2ncc3c(NC4CCCC4)nc(Cl)nc32)[C@H](O)[C@@H]1O)P(=O)(O)O` (racemic) [Example 216, rac-((R)-1-(carbamoyloxy)-2-(((2R,3S,4R,5R)-5-(6-chloro-4-(cyclopentylamino)-1H-pyrazolo[3,4-d]pyrimidin-1-yl)-3,4-dihydroxytetrahydrofuran-2-yl)methoxy)-3-hydroxypropan-2-yl)phosphonic acid] the value was at most 100 nM; for `O=C1CC(OC[C@H]2O[C@@H](n3ncc4c(NC5CCCC5)nc(Cl)nc43)[C@H](O)[C@@H]2O)(P(=O)(O)O)CO1` (mixture of isomers) [Example 186, rac-(3-(((2R,3S,4R,5R)-5-(6-chloro-4-(cyclopentylamino)-1H-pyrazolo[3,4-d]pyrimidin-1-yl)-3,4-dihydroxytetrahydrofuran-2-yl)methoxy)-5-oxotetrahydrofuran-3-yl)phosphonic acid], at most 100 nM; for `O=P(O)(O)[C@H](CO)OC[C@H]1O[C@@H](n2nnc3c(NC4CCCC4)cc(Cl)nc32)[C@H](O)[C@@H]1O` [Example 144, ((R)-1-(((2R,3S,4R,5R)-5-(5-chloro-7-(cyclopentylamino)-3H-[1,2,3]triazolo[4,5-b]pyridin-3-yl)-3,4-dihydroxytetrahydrofuran-2-yl)methoxy)-2-hydroxyethyl)phosphonic acid], at most 100 nM.
In the case of `CN(C)CC(C)(OC[C@H]1O[C@@H](n2ncc3c(NC4CCCC4)nc(Cl)nc32)[C@H](O)[C@@H]1O)P(=O)(O)O` (stereo partly drawn) [Example 81, (2-(((2R,3S,4R,5R)-5-(6-chloro-4-(cyclopentylamino)-1H-pyrazolo[3,4-d]pyrimidin-1-yl)-3,4-dihydroxytetrahydrofuran-2-yl)methoxy)-1-(dimethylamino)propan-2-yl)phosphonic acid] it was above 1000 nM; in that of `O=C(O)c1ccccc1COCC(CO)(OC[C@H]1O[C@@H](n2ncc3c(NC4CCCC4)nc(Cl)nc32)[C@H](O)[C@@H]1O)P(=O)(O)O` (mixture of isomers) [Example 227, rac-2-((2-(((2R,3S,4R,5R)-5-(6-chloro-4-(cyclopentylamino)-1H-pyrazolo[3,4-d]pyrimidin-1-yl)-3,4-dihydroxytetrahydrofuran-2-yl)methoxy)-3-hydroxy-2-phosphonopropoxy)methyl)benzoic acid], at most 100 nM.
